From paper PMC4906895, “Clonorchis sinensis omega-class glutathione transferases play major roles in the protection of the reproductive system during maturation and the response to oxidative stress” (Parasites & Vectors, 2016) come the findings set out here.

In series [1] the target is T1, Clonorchis sinensis omega-class glutathione transferase 2 (CsGSTo2) (Clonorchis sinensis, UniProt G7YE46).
T1 construct: gene CLF_105746; full-length recombinant (223 amino acids), His-tag removed; GenBank KX163089
T1 sequence (G7YE46 1-223): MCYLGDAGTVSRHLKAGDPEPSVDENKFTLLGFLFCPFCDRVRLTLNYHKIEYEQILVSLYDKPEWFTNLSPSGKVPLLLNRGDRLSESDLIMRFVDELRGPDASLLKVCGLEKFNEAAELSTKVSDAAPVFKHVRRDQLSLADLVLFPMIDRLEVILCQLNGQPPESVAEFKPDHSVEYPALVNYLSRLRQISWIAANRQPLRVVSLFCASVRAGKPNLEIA
Put plainly: spectrophotometric GST activity of purified enzyme (specific activity). It is filed as biochemical.

The target in series [2] is T2, Clonorchis sinensis omega-class glutathione transferase 1 (CsGSTo1) (Clonorchis sinensis, UniProt A0A192IBN1).
T2 construct: full-length recombinant (246 amino acids), His-tag removed; GenBank KX163088
T2 sequence (A0A192IBN1 1-246): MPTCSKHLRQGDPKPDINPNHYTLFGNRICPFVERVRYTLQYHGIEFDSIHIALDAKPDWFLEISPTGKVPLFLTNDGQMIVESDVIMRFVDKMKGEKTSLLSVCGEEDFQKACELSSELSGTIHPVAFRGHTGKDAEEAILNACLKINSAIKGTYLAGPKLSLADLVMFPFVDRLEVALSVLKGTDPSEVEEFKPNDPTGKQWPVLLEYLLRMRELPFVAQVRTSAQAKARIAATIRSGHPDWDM
Described as above. It is filed as biochemical.

Series [3] deals with T1, Clonorchis sinensis omega-class glutathione transferase 2 (CsGSTo2). Put plainly: biochemical. Set-up: DHAR activity inhibition of recombinant CsGSTo, absorbance at 265 nm; Ki from Lineweaver-Burk plots. Conditions: for Ki: non-competitive. The procedure: (§1) We determined the inhibition mode of CsGSTos employing SHG and the anthelminthic drug praziquantel (PZQ; Shinpoong, Seoul, Korea). rCsGSTos (each 100 ng) were preincubated with Dulbecco’s PBS supplemented with 10–1,000 μM PZQ or 10–500 nM SHG for 2 min, after which the reaction was initiated by adding 1 mM GSH and 1 mM DHA. The increase in absorbance of the resulting […] was recorded spectrophotometrically at 265 nm. A set of reactions under identical conditions was done for each inhibitor concentration and for controls. To examine the inhibition mode of the specific active sites, rCsGSTos were preincubated with saturating concentrations of GSH (5 mM) for 2 min before conjugating reaction with varying concentrations of DHA (0.01–5 mM). […] All measurements were independently done in triplicate. Data were analyzed by Lineweaver-Burk plots. GST activity was spectrophotometrically determined employing a panel of substrates (Sigma-Aldrich); 1-chloro-2,4-dinitrobenzene (CDNB; pH 6.5, 340 nm), 1,2-dichloro-4-nitrobenzene (DCNB; pH 7.5, 345 nm), [compound left out] (4-NBC; pH 6.5, 310 nm), [compound left out] acetate (4-NPA; pH 7.0, 400 nm), 4-hydroxy nonenal (pH 7.5, 340 nm), cumene hydroperoxide (CHP; pH 6.5, 340 nm) and ethacrynic acid (pH 7.5, 340 nm). The reactions were recorded for 5 min at 25 °C in 100 mM potassium phosphate buffer (pH 7.2, 200 μl) containing each 4 mM substrate and 4 mM GSH. The formation of ascorbate by the glutathione-dependent DHAR was detected in potassium phosphate buffer (50 mM, pH 7.2) supplemented with 1 mM GSH and 0.25 mM dehydroascorbate (DHA) at 265 nm. Thioltransferase activity was assayed using hydroxylethyl disulfide (HEDS, 2 mM) in potassium phosphate buffer (50 mM, pH 7.2) containing 0.2 mM NADPH, 0.5 mM GSH and 0.5 units of glutathione reductase for 2 min at 340 nm. One unit of enzyme activity was defined as the amount of enzyme that catalyzed the formation of one micromole of product per min in the presence of respective substrates. Vmax and appKm were determined by one site saturation assays in ranges of 0.01–5 mM DHA with 5 mM GSH (saturating concentration). We also used variable concentrations of GSH ranging from 0.01–5.0 mM with 5 mM DHA (saturating concentration). Enzyme activity was monitored by changes of absorbance and was converted to specific activity using a molar extinction coefficient (Δε = 5.3). Non-enzymatic reaction was concomitantly monitored and subtracted from the entire reaction rate. All enzyme assays were independently performed in triplicate at 25 °C. Data were analyzed by best fit algorithm in SigmaPlot10.0.1 (Systat, San Diego, CA, USA). […] SHG might act via nucleophilic attack of the active site cysteine on the cysteinyl sulfur of the SHG to form a mixed disulfide with the DHA/GSH moiety with high affinity. […] PZQ might bind to a site other than the active- and glutathione-binding sites and act allosterically. We determined IC50 values of rCsGSTos against SHG and PZQ at a saturating concentration (IC50SC).

In series [4] the target is T2, Clonorchis sinensis omega-class glutathione transferase 1 (CsGSTo1). Put plainly: biochemical. Set-up: DHAR activity inhibition of recombinant CsGSTo, absorbance at 265 nm; Ki from Lineweaver-Burk plots. The method, then:
as §1

Substrate in series [5]: O=C1O[C@H]([C@@H](O)CO)C(=O)C1=O
In words: steady-state DHAR kinetics of purified enzyme (apparent Km). It is filed as biochemical, Clonorchis sinensis. Conditions: GSH.

Like-named read-outs stand apart in the source and are kept apart here.

`O=[N+]([O-])c1ccc(CCl)cc1` [4-NBC, 4-nitrobenzyl chloride]: in series [1], the “Specific activity (μmol/min/mg) / rGSTo2” value stood at 0.91 ± 0.24 µmol/min/mg. Moreover, the “Specific activity (μmol/min/mg) / rGSTo1” value in series [2] came to 1.42 ± 0.09 µmol/min/mg.
Take `O=C(C1CCCCC1)N1CC(=O)N2CCc3ccccc3C2C1` (centres unmarked) [PZQ, praziquantel]: the IC50 in series [3] was found to be 116.8 ± 0.7 µM; in series [4] it was 108.4 ± 0.8 µM. The inhibition constant (Ki) was 42.8 µM in series [3] (ligand binding site (varied GSH)); 38.2 µM in series [3] (specific active site (varied DHA)); 46.8 µM in series [4] (ligand binding site (varied GSH), non-competitive); 44.1 µM in series [4] (specific active site (varied DHA), non-competitive).
With `CCCCCCSC[C@H](NC(=O)CC[C@H](N)C(=O)O)C(=O)NCC(=O)O` [SHG, S-hexylglutathione], the Ki in series [4] was 0.00063 µM.

B1: Clonorchis sinensis omega-class glutathione transferase 2 (CsGSTo2) (Clonorchis sinensis) (protein)
chain: MCYLGDAGTVSRHLKAGDPEPSVDENKFTLLGFLFCPFCDRVRLTLNYHKIEYEQILVSLYDKPEWFTNLSPSGKVPLLLNRGDRLSESDLIMRFVDELRGPDASLLKVCGLEKFNEAAELSTKVSDAAPVFKHVRRDQLSLADLVLFPMIDRLEVILCQLNGQPPESVAEFKPDHSVEYPALVNYLSRLRQISWIAANRQPLRVVSLFCASVRAGKPNLEIA
notes: full-length recombinant (223 amino acids), His-tag removed; GenBank KX163089
On to B1, for which, in series [5], the Km is 170 ± 20 µM, the maximal velocity (Vmax) came out at 1.08 ± 0.02 µmol/min/mg, the kcat came out at 0.43 s⁻¹ and the kcat/Km amounted to 2530 M⁻¹ s⁻¹.

B2: Clonorchis sinensis omega-class glutathione transferase 1 (CsGSTo1) (Clonorchis sinensis) (protein)
chain: MPTCSKHLRQGDPKPDINPNHYTLFGNRICPFVERVRYTLQYHGIEFDSIHIALDAKPDWFLEISPTGKVPLFLTNDGQMIVESDVIMRFVDKMKGEKTSLLSVCGEEDFQKACELSSELSGTIHPVAFRGHTGKDAEEAILNACLKINSAIKGTYLAGPKLSLADLVMFPFVDRLEVALSVLKGTDPSEVEEFKPNDPTGKQWPVLLEYLLRMRELPFVAQVRTSAQAKARIAATIRSGHPDWDM
notes: full-length recombinant (246 amino acids), His-tag removed; GenBank KX163088
With B2, in series [5], the Km came out at 210 ± 20 µM, the maximum rate (Vmax) worked out at 1.16 ± 0.02 µmol/min/mg, the kcat was 0.48 s⁻¹ and the kcat/Km is 2290 M⁻¹ s⁻¹.
